How the values were obtained:
[1] = test system: db/db mice challenged with high fat diet (HF), ESRD model; experiment: Kidney function of HF-fed db/db mice (24 h urinary albumin, urine output, serum creatinine); assay type: in vivo, mouse
Text: (§1) Male db/db (BKS.Cg-m+/+Lepr^db/J), age and sex matched db/+ mice were acquired from Jackson Laboratories at age of 10 weeks and housed 4/cage or less. Animals were habitat for 2 weeks in a temperature- and humidity-controlled facility with a 12:12-h light-dark cycle, fed ad libitum with RD (7012 Teklad LM-485, Harlan Laboratories) and had free access to water.
(§2) The mice were challenged with HF (60.3% calories from fat, TD.06414, Harlan Laboratories) starting at 12 weeks of age as depicted in FIG. 1A. The HF challenge was divided into two phases: the first phase lasted 2 weeks followed by a 4-week RD feeding. The second phase of HF feeding followed the 4-week RD interval and continued to the end of the experiments (5 weeks). At the beginning of the second HF feeding, db/db mice were randomly divided into 2 groups and intraperitoneally injected with either Saline (vehicle, db/db-HF-S) or 17-DMAG (6.5 μg/Kg bodyweight, db/db-HF-D). The animal protocols were approved by the Institutional Animal Care and Use Committee (0707-001), UT Health Science Center at San Antonio.
Urine collection and other physical parameters were measured following the schedule in FIG. 1A. 24 h urine samples were collected from individual mice and urinary albumin concentration was determined using a murine albumin enzyme-linked immunosorbent assay (Albuwell M Kit; Exocell, Philadelphia, Pa.). Serum creatinine concentrations were determined by the Creatinine Companion kit (Exocell).

[2] = test system: kidney glomeruli and tubules of HF-fed db/db mice; experiment: Kidney histopathology (HE, PAS, Masson's trichrome) of HF-fed mice; assay type: in vivo, mouse
Text: as §1, §2
Formalin-fixed, paraffin-embedded kidney sections were stained with haematoxylin and eosin (HE), periodic acid-Schiff (PAS), or Masson's trichrome and analyzed to evaluate kidney damages in a blinded manner. The area of glomerular PAS staining was measured by image analysis using Image-Pro Plus 4.5 (Media Cybernetics, Silverspring, Md.). A semi-quantitative assessment was performed in HE stained slides to evaluate the extent of tubular damage and graded from 1 to 5 as follows: 1: vacuolation of cytoplasm in <20% of tubules; 2: vacuoles in 20% to 40% of tubules; 3: vacuoles in 40% to 60% tubules with minimal distortion of tubular structures; 4: vacuoles in 60% to 80% of tubules with large and marked distortion of tubular profiles, pyknotic nuclei, patches of tubular atrophy and tubular degeneration; and 5: >80% of tubules with severe vacuolation, or tubular atrophy and degeneration. The fractal collagen volume was assessed by point counter grid using ImageJ (NIH) program to quantify the blue stain in the trichrome-stained sections.

[3] = test system: HF-fed db/db mice with ESRD; experiment: Kaplan-Meyer survival analysis of HF-fed mice; assay type: in vivo, mouse
Text: as §2
Results presented as mean±S.E and Student's t-test was used to evaluate the differences between two groups. Kaplan-Meyer survival analysis was performed using the log-rank statistic to test for a significant difference among the survival curves. Differences were considered statistically significant at P<0.05.

hsp90β1 [4] = molecular target: T1, hsp90β1 (Mus musculus, UniProt P08113); experiment: Western blot of hsp90β1 in kidney homogenate and isolated kidney mitochondria; assay type: in vivo; details: db/db-HF-D vs db/db-HF-S, daily injection
T1 construct: We measured the effect of daily 17-DMAG injection on hsp90β1 levels in the kidney of db/db-HF mice; from tissue; host or cells: kidney homogenate and isolated kidney mitochondria of HF-fed db/db mice
Protocol: (§3) Western blot or immunochemistry was performed with polyclonal (pAb) and/or monoclonal (mAb) primary antibodies to detect hsp90β1 and 3-NT levels as previously described. The primary antibodies used in western blots were as follows: mAb anti-3-NT (1:1000, clone 1A6, Millipore); rabbit pAb anti-3-NT (1:1000, Millipore); pAb anti-GRP94 (1:1000, Santa Cruz Biotechnology), mAb anti-Complex 1 (1:2000) and mAb anti-α-tubulin (1:1000). For the immunochemistry staining with mouse antibody, a specific procedure was performed as previously described to eliminate the direct interaction between antigen and secondary antibody.

[5] = test system: LA-induced [Ca2+]m efflux in kidney mitochondria; experiment: Linoleic acid-induced [Ca2+]m efflux in kidney mitochondria; assay type: in vivo, mouse
Protocol: (§4) Kidney mitochondria were prepared from db/+ or db/db mice and LA-induced [Ca^2+]m and peroxynitrite were assessed as previously described.

[6] = test system: peroxynitrite generation in kidney mitochondria; experiment: Linoleic acid-induced peroxynitrite generation in kidney mitochondria; assay type: in vivo, mouse; details: db/db-HF-D; did not reach statistical significance; FIG. 4F
Protocol: as §4

[7] = test system: 3-nitrotyrosine (3-NT) in kidney; experiment: 3-NT levels in kidney by western blot and immunochemistry; assay type: in vivo, mouse; details: db/db-HF-D vs db/db-HF-S
Protocol: as §3

[8] = test system: polyunsaturated fatty acid-induced mitochondrial Ca2+ efflux (PIMCE); details: applicant's previous studies, basis of the dose; cited from earlier work
hsp90β1 [9] = molecular target: hsp90β1 (Homo sapiens, UniProt P14625); details: prolonged treatment of cells; cited from earlier work
[10] = db/db-HF-D vs db/db-HF-S, FIG. 2G/2H

T1 sequence (P08113 22-802): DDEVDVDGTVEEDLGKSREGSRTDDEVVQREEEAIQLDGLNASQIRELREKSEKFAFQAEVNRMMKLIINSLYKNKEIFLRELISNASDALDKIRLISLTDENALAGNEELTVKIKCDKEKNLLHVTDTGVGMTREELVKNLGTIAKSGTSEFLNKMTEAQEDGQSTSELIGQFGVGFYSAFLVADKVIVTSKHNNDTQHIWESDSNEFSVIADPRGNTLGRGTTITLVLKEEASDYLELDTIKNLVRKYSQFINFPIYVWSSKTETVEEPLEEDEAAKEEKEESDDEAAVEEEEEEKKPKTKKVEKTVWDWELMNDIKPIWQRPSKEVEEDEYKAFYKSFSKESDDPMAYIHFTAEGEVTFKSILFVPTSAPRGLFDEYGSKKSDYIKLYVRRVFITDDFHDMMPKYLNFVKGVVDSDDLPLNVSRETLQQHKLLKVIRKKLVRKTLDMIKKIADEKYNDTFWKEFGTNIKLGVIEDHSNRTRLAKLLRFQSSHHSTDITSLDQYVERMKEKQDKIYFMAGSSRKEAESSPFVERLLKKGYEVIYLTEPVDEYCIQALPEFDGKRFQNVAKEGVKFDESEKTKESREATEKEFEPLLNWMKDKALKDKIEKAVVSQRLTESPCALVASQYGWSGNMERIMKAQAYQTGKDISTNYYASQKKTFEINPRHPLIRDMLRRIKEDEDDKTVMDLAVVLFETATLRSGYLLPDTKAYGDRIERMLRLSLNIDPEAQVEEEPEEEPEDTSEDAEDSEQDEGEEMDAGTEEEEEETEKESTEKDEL
hsp90β1 (Homo sapiens, UniProt P14625), sequence (P14625 22-803): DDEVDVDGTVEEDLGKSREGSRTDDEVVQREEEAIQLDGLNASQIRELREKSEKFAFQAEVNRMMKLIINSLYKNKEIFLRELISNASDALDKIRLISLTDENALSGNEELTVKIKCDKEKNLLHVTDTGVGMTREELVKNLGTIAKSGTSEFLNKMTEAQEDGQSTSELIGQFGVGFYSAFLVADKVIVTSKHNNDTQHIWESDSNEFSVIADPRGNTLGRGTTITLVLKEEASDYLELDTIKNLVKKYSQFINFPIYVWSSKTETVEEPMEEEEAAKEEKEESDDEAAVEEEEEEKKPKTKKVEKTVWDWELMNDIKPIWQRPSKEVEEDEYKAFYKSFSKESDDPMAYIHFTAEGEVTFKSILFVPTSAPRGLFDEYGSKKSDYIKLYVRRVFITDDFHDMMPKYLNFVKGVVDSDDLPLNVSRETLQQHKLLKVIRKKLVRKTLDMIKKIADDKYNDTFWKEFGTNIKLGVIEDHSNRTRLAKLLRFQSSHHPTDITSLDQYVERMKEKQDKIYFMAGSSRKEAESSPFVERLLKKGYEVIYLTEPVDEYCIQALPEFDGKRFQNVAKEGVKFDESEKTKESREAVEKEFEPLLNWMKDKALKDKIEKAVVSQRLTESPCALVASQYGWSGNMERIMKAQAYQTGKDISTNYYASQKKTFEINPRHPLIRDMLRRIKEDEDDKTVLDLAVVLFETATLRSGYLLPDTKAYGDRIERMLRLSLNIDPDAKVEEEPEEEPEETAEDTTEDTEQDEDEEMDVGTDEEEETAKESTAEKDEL

17-dimethylaminoethylamino-17-demethoxygeldanamycin [17-DMAG]
24 h urine output ([1]; db/db-HF-D (6.5 μg/kg i.p. daily) vs db/db-HF-S, from 17th day of second HF feeding, FIG. 1E): significantly preserved
24 h urinary albumin excretion (albuminuria) ([1]; db/db-HF-D (6.5 μg/kg i.p. daily, second HF challenge) vs db/db-HF-S, FIG. 1D): significantly diminished
serum creatinine, difference between db/db-HF-D and db/+ groups ([1]; db/db-HF-D, 6.5 μg/kg i.p. daily): no significant difference
serum creatinine compared to db/db-HF-S group ([1]; db/db-HF-D, 6.5 μg/kg i.p. daily, FIG. 1F): significantly lowered
glomerular and tubular abnormalities in HF-fed db/+ mice ([2]; HF-fed db/+ mice treated with 17-DMAG, FIG. 2B): did not exhibit any glomerular and tubular abnormalities
tubular vacuolation ([2]; db/db-HF-D group (also in db/db-HF-S)): evidenced
segmental glomerulosclerosis (HE staining, 100×) ([2]; db/db-HF-D vs db/db-HF-S, FIG. 2C/2D): largely prevented
tubular atrophy and degeneration (HE staining) ([2]; db/db-HF-D vs db/db-HF-S, FIG. 2E/2F): dramatic protection
segmental glomerulosclerosis and mesangial matrix expansion (PAS, 200×), glomerular lesions [2, 10]: amiiorated
tubulointerstitial fibrosis (PAS-stained tubulointerstitium) [2, 10]: largely prevented
accumulation of tubulointerstitial collagen (Masson's trichrome) ([2]; db/db-HF-D vs db/db-HF-S, FIG. 2I/2J): effectively reduced
tubular damage (index, morphometric quantification) ([2]; db/db-HF-D vs db/db-HF-S, FIG. 2K): significant alleviation
mesangial matrix expansion (morphometric quantification) ([2]; db/db-HF-D vs db/db-HF-S, FIG. 2L): significant alleviation
collagen accumulation (morphometric quantification) ([2]; db/db-HF-D vs db/db-HF-S, FIG. 2M): significant alleviation
mortality in HF-fed db/+ mice ([3]; db/+-HF-S and db/+-HF-D groups): no mortality
survival rate ([3]; db/db-HF-D vs db/db-HF-S, log-rank, FIG. 3): significantly improved
hsp90β1 levels in kidney homogenates (hsp90β1 [4]; FIG. 4A): similar
hsp90β1 levels in isolated kidney mitochondria (hsp90β1 [4]; FIG. 4B): significantly reduced
rate and amplitude of LA-induced [Ca2+]m signal, difference between db/db-HF-D and db/+ groups ([5]; db/db-HF-D vs db/+): no significant differences
LA-induced [Ca2+]m efflux in kidney mitochondria ([5]; db/db-HF-D vs db/db-HF-S, FIG. 4C-E): significantly diminished
rate and amplitude of LA-induced [Ca2+]m responses ([5]; db/db-HF-D vs db/db-HF-S, FIG. 4D, 4E): effectively attenuated
LA-induced peroxynitrite generation [6]: attenuated
3-NT in kidney sections by immunohistochemistry ([7]; FIG. 5C-E): effectively reduced
3-NT level, bands with MW<50kDa, western blot with polyclonal anti-3-NT antibody ([7]; kidney homogenates, FIG. 5A): significant 3-NT level reduction
3-NT levels in proteins <50 kDa, western blot with monoclonal antibody ([7]; kidney homogenates, FIG. 5B): significantly lowered
inhibition on PIMCE [8]: maximal inhibition
toxicity to cells [8]: did not produce apparent toxicity
degradation and downregulation of hsp90β1 (hsp90β1 [9]): caused degradation and downregulation
